Key:
[1] = system: Sendai virus induced human leukocytes; test: α-interferon production in Sendai virus induced human leukocytes, ELISA of supernatant; assay type: cell-based; conditions: for effect on production of α-interferon (in words): virus induced primary leukocytes
Description: The human leukocytes used according to the invention are prepared from buffy coats by an initial centrifugation to fractionate the components, followed by sequential removal of the plasma layer and of the leukocyte fraction by suction. Residual red blood cells contaminating the leukocyte fraction are lysed twice with 2-4 volumes of cold 0.83% ammonium chloride and each lysis step is followed by centrifugation to collect the cells. The final leukocyte fraction is resuspended in a basal medium, e.g. EMEM (Eagle's minimum essential medium) supplemented with polyethylene glycol-(PEG)-precipitated human plasma. PEG-precipitated plasma is prepared by adding PEG 6000 to a final concentration of 6% (w/w) to human plasma. After precipitation for 3-5 days in a cold room the supernatant is removed and stored frozen until used. The temperature of the incubation medium is set to 36-37° C. and continuous stirring is used. Human PEG-precipitated plasma is added to a concentration of 1-5% (v/v), preferably 4% (v/v). A low amount of α-interferon (normally 100 IU/ml) is added to the incubation medium as a priming step, but other concentrations, up to several thousands of units per ml can be used. Human leukocytes are then added to a concentration of about 3-15 million cells per mL, preferably 7-11 million cells per mL. The similar size of the enhancing effect observed using the different cell concentrations makes it probable that the effect can be seen also at cell concentrations outside this range. The priming step is normally allowed to proceed for 1-5 hours, preferably 1.5-2 hours. […] A decrease of the incubation temperature to 29° C. -32° C. is performed (Morser, J. And Shuttleworth, J. (1981) J. Gen. Virology 56, 163-174) after another 1 to 4 hours, preferable after 1 to 2 hours. The concentration range where the additives are effective in increasing the interferon production varies between the different compounds but for the least toxic solvents a positive effect can be seen in the range of 1 mM-0.3 M, preferably in the range of 3 mM-50 mM and most preferably within 5 mM-20 mM. For the more toxic solvents the suitable concentration lies within the more limited ranges. […] After these additions, the incubation is allowed to proceed overnight with continuous stirring. A centrifugation step is performed to remove the cells and the supernatants are analysed by an ELISA to quantify α-interferon. Human leukocytes prepared from buffy coats and used in concentrations between 8 and 11 million cells per mL are incubated in a basal media (either EMEM or a modified EMEM) supplemented with 1.5 g/L of tricine and 4% (v/v) PEG precipitated plasma. […] The cells are removed by a centrifugation step and the supernatants are analysed by an ELISA to quantify α-interferon. […]

[2] = system: non induced human leukocytes; test: α-interferon production in non induced human leukocytes, ELISA of supernatant; assay type: cell-based; conditions: absence of a viral inducer
Description: Human leukocytes prepared from buffy coats and used in concentrations between 8 and 11 million cells per mL are incubated in a basal media (either EMEM or a modified EMEM) supplemented with 1.5 g/L of tricine and 4% (v/v) PEG precipitated plasma. The experiments are performed in a volume of 40 mL medium in 100 mL glass bottles under continuous stirring. The cells are primed with 100 IU/mL α-interferon for 1.5 hours at 37° C. before addition of 30 mL/L Sendai virus. After 1.5 hours the incubation temperature is decreased to 30° C. and the organic solvents are added to the incubation medium. The solvent used are acetone, DMSO (final concentration: 5 mL/L), 2-butanone, NN-dimethylacetamide, NMP, tetramethylene sulfoxide (2.5 mL/L), TMU (1.5 mL/L), 2-pyrrolidinone (1.25 mL/L), 4-metyl-2-pentanone, 1,3-dimetyl-2-imidazolidinone and N-ethyl-2-pyrrolidinone (0.6 mL/L). The incubation is then allowed to proceed overnight. The cells are removed by a centrifugation step and the supernatants are analysed by an ELISA to quantify α-interferon.
Example 1 is repeated with the same incubation conditions but with addition of 2-ABMP in combination with DMSO. The enhancing agents are added both to Sendai virus induced leukocytes and to non induced leukocytes and the effect on the α-interferon production is compared. The 2-ABMP is added at a concentration of 50 μg/ml and the amount of DMSO added is 5 mL/L.

Question: How did the “effect on production of α-interferon (in words)” value (from here on “effect on production”) [1] turn out when `C[S+](C)[O-]` [dimethylsulfoxide] was run?
Answer: enhanced

Question: For `Cc1nc(N)nc(O)c1Br` [2-ABMP, 2-amino-5-bromo-6-methyl-4-pyrimidinol], which “effect on production” value [1] is on record?
Answer: act as an enhancing agent

Question: What about the “induction of α-interferon (in words)” value [2] of the same molecule?
Answer: did not induce α-interferon

Question: For `Cn1c(=O)c2[nH]cnc2n(C)c1=O` [theophylline], which “effect on production” value [1] is on record?
Answer: enhanced

Question: Which “effect on yield of α-interferon (in words)” value ([1]; pre-treatment of primary leukocytes) does the source give for `CCCC(=O)[O-].[Na+]` [sodium butyrate] here?
Answer: decrease
